Assay results reported in the kinase profiling compilation of Christmann-Franck et al. (2016).

What was measured:
Assay in all cases: KINOMEscan competition binding
Conditions in all cases: compound 10.0 µM
ACVR1 (human) = ACVR1 (human) (UniProt Q04771)
ANKK1 (human) = ANKK1 (human) (UniProt Q8NFD2)
BRSK1 (human) = BRSK1 (human) (UniProt Q8TDC3)
CASK (human) = CASK (human) (UniProt O14936)
CDKL3 (human) = CDKL3 (human) (UniProt Q8IVW4)
CSNK1E (human) = CSNK1E (human) (UniProt P49674)
DDR1 (human) = DDR1 (human) (UniProt Q08345)
DMPK (human) = DMPK (human) (UniProt Q09013)
EIF2AK1 (human) = EIF2AK1 (human) (UniProt Q9BQI3)
Sequence of EIF2AK1 (human) (Q9BQI3 whole entry, looked up): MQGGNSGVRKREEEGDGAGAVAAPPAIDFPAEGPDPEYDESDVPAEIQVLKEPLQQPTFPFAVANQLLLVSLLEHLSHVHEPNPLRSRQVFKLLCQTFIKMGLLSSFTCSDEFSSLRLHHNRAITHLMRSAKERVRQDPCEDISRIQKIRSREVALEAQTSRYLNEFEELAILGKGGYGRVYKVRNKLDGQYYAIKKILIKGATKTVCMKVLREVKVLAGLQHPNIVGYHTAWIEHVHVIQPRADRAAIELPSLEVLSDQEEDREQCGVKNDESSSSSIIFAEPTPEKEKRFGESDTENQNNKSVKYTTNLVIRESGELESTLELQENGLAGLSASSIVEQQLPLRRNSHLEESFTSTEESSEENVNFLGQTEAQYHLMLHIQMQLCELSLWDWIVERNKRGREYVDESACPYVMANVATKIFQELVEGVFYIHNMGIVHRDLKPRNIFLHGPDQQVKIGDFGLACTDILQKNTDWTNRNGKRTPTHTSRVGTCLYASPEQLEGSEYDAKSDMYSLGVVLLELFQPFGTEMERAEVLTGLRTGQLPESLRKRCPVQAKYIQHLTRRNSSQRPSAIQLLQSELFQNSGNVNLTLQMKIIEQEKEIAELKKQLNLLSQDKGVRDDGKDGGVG

EIF2AK2 (human) = EIF2AK2 (human) (UniProt P19525)
ERBB3 (human) = ERBB3 (human) (UniProt P21860)
FGFR3 (human) = FGFR3 (human) (UniProt P22607)
IKBKB (human) = IKBKB (human) (UniProt O14920)
Sequence of IKBKB (human) (O14920 whole entry, looked up): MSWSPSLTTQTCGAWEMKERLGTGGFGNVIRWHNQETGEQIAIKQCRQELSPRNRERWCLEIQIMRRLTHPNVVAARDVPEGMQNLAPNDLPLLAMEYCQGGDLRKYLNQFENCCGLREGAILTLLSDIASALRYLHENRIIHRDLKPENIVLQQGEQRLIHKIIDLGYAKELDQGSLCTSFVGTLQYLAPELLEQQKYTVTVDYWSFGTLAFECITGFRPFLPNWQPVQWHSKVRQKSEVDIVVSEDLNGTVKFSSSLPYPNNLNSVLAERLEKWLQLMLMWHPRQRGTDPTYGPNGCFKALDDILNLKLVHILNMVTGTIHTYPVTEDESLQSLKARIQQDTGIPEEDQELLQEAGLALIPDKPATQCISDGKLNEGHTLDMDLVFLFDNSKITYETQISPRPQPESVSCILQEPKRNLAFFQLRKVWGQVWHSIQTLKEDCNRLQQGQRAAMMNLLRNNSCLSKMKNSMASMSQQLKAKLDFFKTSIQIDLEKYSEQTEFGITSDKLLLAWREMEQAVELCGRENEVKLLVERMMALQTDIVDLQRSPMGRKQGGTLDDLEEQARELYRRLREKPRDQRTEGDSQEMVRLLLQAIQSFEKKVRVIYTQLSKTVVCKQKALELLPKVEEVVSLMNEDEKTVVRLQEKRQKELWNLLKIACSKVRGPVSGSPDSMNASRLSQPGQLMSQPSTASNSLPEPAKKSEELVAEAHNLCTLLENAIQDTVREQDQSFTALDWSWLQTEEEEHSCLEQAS

IRAK1 (human) = IRAK1 (human) (UniProt P51617)
Sequence of IRAK1 (human) (P51617 whole entry, looked up): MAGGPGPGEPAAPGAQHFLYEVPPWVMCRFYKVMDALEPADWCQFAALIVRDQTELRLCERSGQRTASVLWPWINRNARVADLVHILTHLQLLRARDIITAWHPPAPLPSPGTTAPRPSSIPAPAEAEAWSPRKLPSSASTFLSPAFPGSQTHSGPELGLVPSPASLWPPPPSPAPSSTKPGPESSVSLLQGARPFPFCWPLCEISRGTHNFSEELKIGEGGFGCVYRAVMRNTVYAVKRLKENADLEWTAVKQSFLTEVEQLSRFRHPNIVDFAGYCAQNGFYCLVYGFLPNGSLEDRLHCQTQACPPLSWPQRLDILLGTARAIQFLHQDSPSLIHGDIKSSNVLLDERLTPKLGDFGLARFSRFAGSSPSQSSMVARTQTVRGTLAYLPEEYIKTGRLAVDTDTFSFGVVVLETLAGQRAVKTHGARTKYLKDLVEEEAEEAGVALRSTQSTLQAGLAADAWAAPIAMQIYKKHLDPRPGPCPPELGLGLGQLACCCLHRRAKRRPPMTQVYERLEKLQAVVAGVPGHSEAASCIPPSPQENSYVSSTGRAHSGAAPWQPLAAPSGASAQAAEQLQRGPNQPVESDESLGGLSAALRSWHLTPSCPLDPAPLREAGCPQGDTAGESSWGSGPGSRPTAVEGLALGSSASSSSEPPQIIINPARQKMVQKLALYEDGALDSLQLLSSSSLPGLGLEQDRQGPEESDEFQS

ITK (human) = ITK (human) (UniProt Q08881)
KDR (human) = KDR (human) (UniProt P35968)
LATS1 (human) = LATS1 (human) (UniProt O95835)
LIMK2 (human) = LIMK2 (human) (UniProt P53671)
MAP3K12 (human) = MAP3K12 (human) (UniProt Q12852)
MAPK3 (human) = MAPK3 (human) (UniProt P27361)
MARK4 (human) = MARK4 (human) (UniProt Q96L34)
Sequence of MARK4 (human) (Q96L34 whole entry, looked up): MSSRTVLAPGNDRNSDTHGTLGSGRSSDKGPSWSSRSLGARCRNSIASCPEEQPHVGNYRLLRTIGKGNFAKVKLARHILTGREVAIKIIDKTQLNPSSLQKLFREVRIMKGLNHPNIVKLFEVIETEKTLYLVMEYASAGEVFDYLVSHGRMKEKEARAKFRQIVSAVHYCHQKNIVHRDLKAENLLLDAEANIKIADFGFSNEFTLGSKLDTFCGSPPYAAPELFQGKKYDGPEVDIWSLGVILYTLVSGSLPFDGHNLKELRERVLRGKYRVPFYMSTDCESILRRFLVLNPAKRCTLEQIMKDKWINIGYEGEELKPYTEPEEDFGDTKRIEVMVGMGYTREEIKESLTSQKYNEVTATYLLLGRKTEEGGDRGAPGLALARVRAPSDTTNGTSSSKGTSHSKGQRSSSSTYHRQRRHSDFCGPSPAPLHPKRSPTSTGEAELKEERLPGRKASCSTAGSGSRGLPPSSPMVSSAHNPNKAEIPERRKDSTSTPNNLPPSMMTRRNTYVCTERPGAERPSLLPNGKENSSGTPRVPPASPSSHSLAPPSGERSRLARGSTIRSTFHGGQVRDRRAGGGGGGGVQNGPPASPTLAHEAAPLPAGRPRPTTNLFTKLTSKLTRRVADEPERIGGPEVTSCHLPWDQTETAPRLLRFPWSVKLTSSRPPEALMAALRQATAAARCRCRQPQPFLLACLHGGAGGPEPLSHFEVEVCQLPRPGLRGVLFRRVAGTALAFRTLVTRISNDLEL

MATK (human) = MATK (human) (UniProt P42679)
MKNK1 (human) = MKNK1 (human) (UniProt Q9BUB5)
NEK3 (human) = NEK3 (human) (UniProt P51956)
NEK4 (human) = NEK4 (human) (UniProt P51957)
NEK9 (human) = NEK9 (human) (UniProt Q8TD19)
PAK1 (human) = PAK1 (human) (UniProt Q13153)
PAK4 (human) = PAK4 (human) (UniProt O96013)
PIP5K1A (human) = PIP5K1A (human) (UniProt Q99755)
ROCK1 (human) = ROCK1 (human) (UniProt Q13464)
RPS6KB1 (human) = RPS6KB1 (human) (UniProt P23443)
SBK1 (human) = SBK1 (human) (UniProt Q52WX2)
SRC (human) = SRC (human) (UniProt P12931)
STK11 (human) = STK11 (human) (UniProt Q15831)
Sequence of STK11 (human) (Q15831 whole entry, looked up): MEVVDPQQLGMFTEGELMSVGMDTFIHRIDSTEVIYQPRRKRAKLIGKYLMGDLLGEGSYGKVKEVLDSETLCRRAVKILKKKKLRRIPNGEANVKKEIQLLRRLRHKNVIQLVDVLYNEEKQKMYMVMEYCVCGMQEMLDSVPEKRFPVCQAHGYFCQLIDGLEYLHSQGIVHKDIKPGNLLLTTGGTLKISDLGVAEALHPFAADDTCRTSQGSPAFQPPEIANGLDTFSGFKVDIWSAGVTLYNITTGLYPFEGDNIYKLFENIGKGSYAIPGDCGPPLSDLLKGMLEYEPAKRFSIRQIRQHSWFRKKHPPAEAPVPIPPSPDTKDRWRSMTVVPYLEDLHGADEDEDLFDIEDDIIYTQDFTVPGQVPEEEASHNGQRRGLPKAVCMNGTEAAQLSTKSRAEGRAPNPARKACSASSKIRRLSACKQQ

STK3 (human) = STK3 (human) (UniProt Q13188)
STK35 (human) = STK35 (human) (UniProt Q8TDR2)
STK38 (human) = STK38 (human) (UniProt Q15208)
TAOK3 (human) = TAOK3 (human) (UniProt Q9H2K8)
Sequence of TAOK3 (human) (Q9H2K8 whole entry, looked up): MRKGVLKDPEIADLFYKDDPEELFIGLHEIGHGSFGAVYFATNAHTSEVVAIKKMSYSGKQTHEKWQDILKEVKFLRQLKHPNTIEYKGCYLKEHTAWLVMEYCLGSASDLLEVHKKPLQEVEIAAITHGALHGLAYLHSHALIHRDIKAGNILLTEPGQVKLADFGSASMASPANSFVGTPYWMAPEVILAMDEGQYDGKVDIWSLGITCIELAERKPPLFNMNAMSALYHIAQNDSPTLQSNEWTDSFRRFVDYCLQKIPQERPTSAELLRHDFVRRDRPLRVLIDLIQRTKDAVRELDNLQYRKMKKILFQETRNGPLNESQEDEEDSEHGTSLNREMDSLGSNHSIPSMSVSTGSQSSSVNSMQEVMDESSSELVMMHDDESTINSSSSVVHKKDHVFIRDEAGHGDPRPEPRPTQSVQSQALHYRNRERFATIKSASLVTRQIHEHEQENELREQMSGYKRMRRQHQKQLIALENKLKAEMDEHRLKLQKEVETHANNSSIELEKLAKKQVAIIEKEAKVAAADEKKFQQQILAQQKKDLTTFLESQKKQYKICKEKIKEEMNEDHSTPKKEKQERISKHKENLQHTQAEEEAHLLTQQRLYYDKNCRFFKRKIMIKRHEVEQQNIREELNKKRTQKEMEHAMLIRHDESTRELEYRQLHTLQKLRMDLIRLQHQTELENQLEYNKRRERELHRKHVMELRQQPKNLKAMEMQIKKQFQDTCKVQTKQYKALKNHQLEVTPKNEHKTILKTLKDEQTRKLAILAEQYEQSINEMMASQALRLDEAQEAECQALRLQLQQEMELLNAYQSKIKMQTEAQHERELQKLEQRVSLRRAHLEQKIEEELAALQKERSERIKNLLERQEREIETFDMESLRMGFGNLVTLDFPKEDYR

TNK1 (human) = TNK1 (human) (UniProt Q13470)
VRK2 (human) = VRK2 (human) (UniProt Q86Y07)
INSR (human) = INSR (human) (UniProt P06213)

Sequence of CDKL3 (human) (Q8IVW4 whole entry, looked up): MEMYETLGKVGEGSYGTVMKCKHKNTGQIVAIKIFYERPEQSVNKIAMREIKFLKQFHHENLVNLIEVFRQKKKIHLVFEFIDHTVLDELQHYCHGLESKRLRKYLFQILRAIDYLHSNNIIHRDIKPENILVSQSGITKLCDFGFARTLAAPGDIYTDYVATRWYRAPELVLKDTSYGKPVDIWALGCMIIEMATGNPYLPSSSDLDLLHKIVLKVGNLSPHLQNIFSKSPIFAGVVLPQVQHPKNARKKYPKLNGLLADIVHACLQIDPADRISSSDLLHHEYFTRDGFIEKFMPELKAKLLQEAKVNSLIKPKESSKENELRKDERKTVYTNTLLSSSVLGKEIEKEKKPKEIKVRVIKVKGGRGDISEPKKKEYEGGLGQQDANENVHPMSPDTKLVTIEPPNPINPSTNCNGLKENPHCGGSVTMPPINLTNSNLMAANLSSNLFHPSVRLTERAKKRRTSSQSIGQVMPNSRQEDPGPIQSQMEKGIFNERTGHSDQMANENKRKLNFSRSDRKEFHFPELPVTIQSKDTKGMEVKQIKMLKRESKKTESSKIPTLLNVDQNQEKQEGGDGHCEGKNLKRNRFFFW

## CCc1nc(-c2cccc(C)c2)c(-c2ccnc(NC(=O)c3ccccc3)c2)s1
ACVR1 (human)
  kinase still bound, per cent of control: 9.6%
ANKK1 (human)
  kinase still bound, per cent of control: 83%
BRSK1 (human)
  kinase still bound, per cent of control: 93%
CASK (human)
  kinase still bound, per cent of control: 100%
CDKL3 (human)
  kinase still bound, per cent of control: 81%
CSNK1E (human)
  kinase still bound, per cent of control: 0.05%
DDR1 (human)
  kinase still bound, per cent of control: 2.8%
DMPK (human)
  kinase still bound, per cent of control: 92%
EIF2AK1 (human)
  kinase still bound, per cent of control: 100%
EIF2AK2 (human)
  kinase still bound, per cent of control: 94%
ERBB3 (human)
  kinase still bound, per cent of control: 49%
FGFR3 (human)
  kinase still bound, per cent of control: 86%
IKBKB (human)
  kinase still bound, per cent of control: 100%
IRAK1 (human)
  kinase still bound, per cent of control: 99%
ITK (human)
  kinase still bound, per cent of control: 100%
KDR (human)
  kinase still bound, per cent of control: 38%
LATS1 (human)
  kinase still bound, per cent of control: 100%
LIMK2 (human)
  kinase still bound, per cent of control: 94%
MAP3K12 (human)
  kinase still bound, per cent of control: 100%
MAPK3 (human)
  kinase still bound, per cent of control: 98%
MARK4 (human)
  kinase still bound, per cent of control: 100%
MATK (human)
  kinase still bound, per cent of control: 100%
MKNK1 (human)
  kinase still bound, per cent of control: 100%
NEK3 (human)
  kinase still bound, per cent of control: 100%
NEK4 (human)
  kinase still bound, per cent of control: 100%
NEK9 (human)
  kinase still bound, per cent of control: 100%
PAK1 (human)
  kinase still bound, per cent of control: 76%
PAK4 (human)
  kinase still bound, per cent of control: 86%
PIP5K1A (human)
  kinase still bound, per cent of control: 100%
ROCK1 (human)
  kinase still bound, per cent of control: 97%
RPS6KB1 (human)
  kinase still bound, per cent of control: 90%
SBK1 (human)
  kinase still bound, per cent of control: 100%
SRC (human)
  kinase still bound, per cent of control: 14%
STK11 (human)
  kinase still bound, per cent of control: 96%
STK3 (human)
  kinase still bound, per cent of control: 97%
STK35 (human)
  kinase still bound, per cent of control: 76%
STK38 (human)
  kinase still bound, per cent of control: 100%
TAOK3 (human)
  kinase still bound, per cent of control: 86%
TNK1 (human)
  kinase still bound, per cent of control: 88%
VRK2 (human)
  kinase still bound, per cent of control: 63%

## CC(=O)c1c(C)c2cnc(Nc3ccc(N4CCNCC4)cn3)nc2n(C2CCCC2)c1=O
ACVR1 (human)
  kinase still bound, per cent of control: 80%
ANKK1 (human)
  kinase still bound, per cent of control: 79%
BRSK1 (human)
  kinase still bound, per cent of control: 68%
CASK (human)
  kinase still bound, per cent of control: 60%
CDKL3 (human)
  kinase still bound, per cent of control: 78%
CSNK1E (human)
  kinase still bound, per cent of control: 16%
DDR1 (human)
  kinase still bound, per cent of control: 60%
DMPK (human)
  kinase still bound, per cent of control: 80%
EIF2AK1 (human)
  kinase still bound, per cent of control: 32%
EIF2AK2 (human)
  kinase still bound, per cent of control: 30%
IKBKB (human)
  kinase still bound, per cent of control: 80%
INSR (human)
  kinase still bound, per cent of control: 67%
IRAK1 (human)
  kinase still bound, per cent of control: 0.85%
ITK (human)
  kinase still bound, per cent of control: 71%
LIMK2 (human)
  kinase still bound, per cent of control: 90%
MAP3K12 (human)
  kinase still bound, per cent of control: 47%
MAPK3 (human)
  kinase still bound, per cent of control: 64%
MARK4 (human)
  kinase still bound, per cent of control: 63%
MATK (human)
  kinase still bound, per cent of control: 46%
NEK3 (human)
  kinase still bound, per cent of control: 100%
NEK4 (human)
  kinase still bound, per cent of control: 20%
NEK9 (human)
  kinase still bound, per cent of control: 76%
PIP5K1A (human)
  kinase still bound, per cent of control: 32%
ROCK1 (human)
  kinase still bound, per cent of control: 30%
RPS6KB1 (human)
  kinase still bound, per cent of control: 36%
SBK1 (human)
  kinase still bound, per cent of control: 36%
SRC (human)
  kinase still bound, per cent of control: 93%
STK11 (human)
  kinase still bound, per cent of control: 82%
STK3 (human)
  kinase still bound, per cent of control: 59%
STK35 (human)
  kinase still bound, per cent of control: 66%
STK38 (human)
  kinase still bound, per cent of control: 57%
TAOK3 (human)
  kinase still bound, per cent of control: 8.1%
TNK1 (human)
  kinase still bound, per cent of control: 61%
